Data: ChEMBL document CHEMBL2311410, “Facile regioselective synthesis of novel bioactive thiazolyl-pyrazoline derivatives via a three-component reaction and their antimicrobial activity” (2013)

How the values were obtained:
Format in all cases: functional
[1] = test system: Pseudomonas aeruginosa; assay: Antimicrobial activity against Pseudomonas aeruginosa ATCC 27853 assessed as zone of inhibition after 24 hrs by agar well-diffusion method
[2] = test system: Staphylococcus aureus; assay: Antimicrobial activity against Staphylococcus aureus ATCC 29213 assessed as zone of inhibition after 24 hrs by agar well-diffusion method
[3] = test system: Escherichia coli; assay: Antimicrobial activity against Escherichia coli ATCC 25922 assessed as zone of inhibition after 24 hrs by agar well-diffusion method

| Compound | inhibition zone (IZ) [1] | inhibition zone (IZ) [2] | inhibition zone (IZ) [3] |
| --- | --- | --- | --- |
| COc1ccc(C2C3CCc4ccccc4C3=NN2c2nc(-c3ccccc3)cs2)cc1 (configuration not stated) | 9 mm | 8 mm |  |
| COc1ccc(C2CC(c3ccccc3)=NN2c2nc(-c3ccccc3)cs2)cc1 (configuration not stated) | 7 mm | 6 mm |  |
| GENTAMICIN | 21 mm | 23 mm | 22 mm |
| Cc1ccc(C2=NN(c3nc(-c4ccccc4)cs3)C(c3ccc(C)cc3)C2)cc1 (configuration not stated) | 16 mm | 7 mm | 7 mm |
| COc1ccc(C2CC(c3ccc(C)cc3)=NN2c2nc(-c3ccccc3)cs2)cc1 (configuration not stated) | 19 mm |  | 7 mm |
| c1ccc(C2=NN(c3nc(-c4ccccc4)cs3)C(c3cccs3)C2)cc1 (configuration not stated) | 19 mm | 9 mm |  |
| COc1ccc(C2=NN(c3nc(-c4ccccc4)cs3)C(c3ccc(OC)cc3)C2)cc1 (configuration not stated) | 18 mm |  | 8 mm |
| Clc1ccc(C2C3CCc4ccccc4C3=NN2c2nc(-c3ccccc3)cs2)cc1 (configuration not stated) | 9 mm |  | 7 mm |
| COc1ccc(C2=NN(c3nc(-c4ccccc4)cs3)C(c3ccc(C)cc3)C2)cc1 (configuration not stated) | 17 mm | 7 mm |  |
| c1ccc(-c2csc(N3N=C4c5ccccc5CCC4C3c3cccs3)n2)cc1 (configuration not stated) | 16 mm |  | 8 mm |
